Measured values: PMC3469417, “Loss of Slc4a1b Chloride/Bicarbonate Exchanger Function Protects Mechanosensory Hair Cells from Aminoglycoside Damage in the Zebrafish Mutant persephone” (PLoS Genetics, 2012)

What was measured:
[1] = target: T1, zebrafish Slc4a1b (zSlc4a1b) (Danio rerio, UniProt D1FTM8); assay: […]- influx in Xenopus oocytes; type: cell-based; details: 200 µM DIDS; inhibitor; bath Cl- 103.6 mM, pH 7.4; disodium salt
T1 construct: cRNA expressed in Xenopus laevis oocytes
T1 sequence (D1FTM8 61-851): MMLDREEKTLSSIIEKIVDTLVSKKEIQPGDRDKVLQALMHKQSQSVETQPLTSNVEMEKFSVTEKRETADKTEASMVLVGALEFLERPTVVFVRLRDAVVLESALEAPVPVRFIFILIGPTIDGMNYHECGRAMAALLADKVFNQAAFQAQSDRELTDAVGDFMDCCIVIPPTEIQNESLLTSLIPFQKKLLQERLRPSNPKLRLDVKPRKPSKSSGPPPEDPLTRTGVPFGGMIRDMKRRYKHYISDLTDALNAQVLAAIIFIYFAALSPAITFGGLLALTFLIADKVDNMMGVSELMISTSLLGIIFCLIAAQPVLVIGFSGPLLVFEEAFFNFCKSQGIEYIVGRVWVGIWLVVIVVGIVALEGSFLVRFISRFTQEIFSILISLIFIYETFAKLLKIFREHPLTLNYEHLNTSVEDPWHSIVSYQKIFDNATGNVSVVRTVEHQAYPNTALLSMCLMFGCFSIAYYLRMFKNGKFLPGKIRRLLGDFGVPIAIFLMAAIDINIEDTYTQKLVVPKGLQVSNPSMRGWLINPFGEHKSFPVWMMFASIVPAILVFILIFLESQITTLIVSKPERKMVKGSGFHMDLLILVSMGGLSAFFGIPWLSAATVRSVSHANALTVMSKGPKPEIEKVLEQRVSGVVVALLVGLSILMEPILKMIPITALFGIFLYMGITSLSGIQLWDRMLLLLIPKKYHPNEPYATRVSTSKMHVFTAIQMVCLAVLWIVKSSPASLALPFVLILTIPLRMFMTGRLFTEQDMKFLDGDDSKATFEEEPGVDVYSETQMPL

[2] = target: T2, human SLC4A1 (hSlc4a1) (Homo sapiens, UniProt P02730); assay: […]- influx in Xenopus oocytes; type: cell-based; details: 200 µM DIDS; inhibitor; bath Cl- 103.6 mM, pH 7.4; disodium salt
T2 construct: expressed in Xenopus laevis oocytes
T2 sequence (P02730 1-911): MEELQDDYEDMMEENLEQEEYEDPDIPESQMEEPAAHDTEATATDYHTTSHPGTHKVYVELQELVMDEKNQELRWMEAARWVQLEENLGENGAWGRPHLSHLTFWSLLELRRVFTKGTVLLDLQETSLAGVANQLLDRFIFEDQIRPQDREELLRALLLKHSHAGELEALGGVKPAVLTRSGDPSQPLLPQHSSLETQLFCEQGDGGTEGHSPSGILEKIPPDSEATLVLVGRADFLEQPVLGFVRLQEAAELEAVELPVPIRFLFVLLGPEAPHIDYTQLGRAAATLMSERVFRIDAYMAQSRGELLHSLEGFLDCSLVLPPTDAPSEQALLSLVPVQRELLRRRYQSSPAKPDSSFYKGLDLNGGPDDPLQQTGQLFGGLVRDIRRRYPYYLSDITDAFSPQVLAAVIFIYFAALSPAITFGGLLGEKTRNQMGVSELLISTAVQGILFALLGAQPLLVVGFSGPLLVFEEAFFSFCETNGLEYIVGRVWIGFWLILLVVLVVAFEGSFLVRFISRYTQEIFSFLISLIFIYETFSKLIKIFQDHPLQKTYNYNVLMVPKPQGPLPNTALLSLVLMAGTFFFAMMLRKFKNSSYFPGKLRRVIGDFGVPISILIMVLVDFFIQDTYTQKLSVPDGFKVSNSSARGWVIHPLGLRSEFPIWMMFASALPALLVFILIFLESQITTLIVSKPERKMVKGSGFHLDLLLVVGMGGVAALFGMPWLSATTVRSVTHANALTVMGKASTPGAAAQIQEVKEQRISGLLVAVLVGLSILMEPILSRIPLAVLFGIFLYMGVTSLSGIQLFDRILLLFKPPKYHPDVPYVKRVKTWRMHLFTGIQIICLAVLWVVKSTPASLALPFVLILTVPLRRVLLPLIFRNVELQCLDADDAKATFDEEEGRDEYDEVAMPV

For `O=S(=O)(O)c1cc(N=C=S)ccc1/C=C/c1ccc(N=C=S)cc1S(=O)(=O)O` [DIDS, 4,4′-diisothiocyano-2,2′-stilbenedisulfonic acid], the “36Cl- influx in Xenopus oocytes” value [1] was “zebrafish Slc4a1b and by human SLC4A1 was abolished by treatment with the disulfonic stilbene DIDS” and the “36Cl- influx in Xenopus oocytes” value [2] was “zebrafish Slc4a1b and by human SLC4A1 was abolished by treatment with the disulfonic stilbene DIDS”.
